# Source: patent US4012576A, “Antibiotic complex Bu 2183” (priority 1975, dated 1977)
# “Also recorded” adds a separate entry of the source. Where two headings read alike, the source gives them in different places.
# Legend:
# Ent. cloacae A20364 = assay: MIC, two-fold agar dilution on Nutrient Agar; assay type: cell-based; conditions: Enterobacter cloacae, A20364
# Experimental: (§1) The minimum inhibitory concentrations (MIC) of Bu-2183 A and B were determined against a wide variety of bacteria by the two-fold agar dilution method on Nutrient Agar plates. The inocula-replicating device of Steers et al. was used. Inoculum size was adjusted to be 10^4 dilution of overnight culture of the test organisms in Heart Infusion Broth (Difco). The results are shown in Table 6 along with those of kanamycin which was comparatively tested as a reference antibiotic.
# E. coli NR 79/W677 = assay: MIC, two-fold agar dilution on Nutrient Agar; assay type: cell-based; conditions: Escherichia coli
# Experimental: as §1
# Ser. marcescens A20019 = assay: MIC, two-fold agar dilution on Nutrient Agar; assay type: cell-based; conditions: Serratia marcescens, A20019
# Experimental: as §1
# S. aureus D193 = assay: MIC, two-fold agar dilution on Nutrient Agar; assay type: cell-based; conditions: Staphylococcus aureus, D193
# Experimental: as §1
# E. coli A20732 = assay: MIC, two-fold agar dilution on Nutrient Agar; assay type: cell-based; conditions: Escherichia coli, A20732
# Experimental: as §1
# Ps. aeruginosa A9930 = assay: MIC, two-fold agar dilution on Nutrient Agar; assay type: cell-based; conditions: Pseudomonas aeruginosa, A9930
# Experimental: as §1
# [1] = tested on: K. pneumoniae Type 22-3038; assay: MIC, two-fold agar dilution on Nutrient Agar; assay type: cell-based; conditions: Klebsiella pneumoniae, TYPE223038
# Experimental: as §1
# Pseudomonas sp. A20621 = assay: MIC, two-fold agar dilution on Nutrient Agar; assay type: cell-based; conditions: Pseudomonas, SP.A20621
# Experimental: as §1
# Ps. aeruginosa No. 130 = assay: MIC, two-fold agar dilution on Nutrient Agar; assay type: cell-based; conditions: Pseudomonas aeruginosa, NO.130
# Experimental: as §1
# Ps. aeruginosa A20653 = assay: MIC, two-fold agar dilution on Nutrient Agar; assay type: cell-based; conditions: Pseudomonas aeruginosa
# Experimental: as §1
# S. aureus D137 = assay: MIC, two-fold agar dilution on Nutrient Agar; assay type: cell-based; conditions: Staphylococcus aureus
# Experimental: as §1
# Ps. aeruginosa A20896 = assay: MIC, two-fold agar dilution on Nutrient Agar; assay type: cell-based; conditions: Pseudomonas aeruginosa
# Experimental: as §1
# E. coli ML 1630 = assay: MIC, two-fold agar dilution on Nutrient Agar; assay type: cell-based; conditions: Escherichia coli
# Experimental: as §1
# Ent. cloacae A21006 = assay: MIC, two-fold agar dilution on Nutrient Agar; assay type: cell-based; conditions: Enterobacter cloacae, A21006
# Experimental: as §1
# S. aureus A20239 = assay: MIC, two-fold agar dilution on Nutrient Agar; assay type: cell-based; conditions: Staphylococcus aureus
# Experimental: as §1
# E. coli A20895 = assay: MIC, two-fold agar dilution on Nutrient Agar; assay type: cell-based; conditions: Escherichia coli
# Experimental: as §1
# K. pneumoniae D11 = assay: MIC, two-fold agar dilution on Nutrient Agar; assay type: cell-based; conditions: Klebsiella pneumoniae
# Experimental: as §1
# Pr. vulgaris A9436 = assay: MIC, two-fold agar dilution on Nutrient Agar; assay type: cell-based; conditions: Proteus vulgaris
# Experimental: as §1
# E. coli A20107 = assay: MIC, two-fold agar dilution on Nutrient Agar; assay type: cell-based; conditions: Escherichia coli
# Experimental: as §1
# S. aureus Smith = assay: MIC, two-fold agar dilution on Nutrient Agar; assay type: cell-based; conditions: Staphylococcus aureus
# Experimental: as §1
# Ser. marcescens A21247 = assay: MIC, two-fold agar dilution on Nutrient Agar; assay type: cell-based; conditions: Serratia marcescens
# Experimental: as §1
# S. aureus D133 = assay: MIC, two-fold agar dilution on Nutrient Agar; assay type: cell-based; conditions: Staphylococcus aureus
# Experimental: as §1
# Ps. aeruginosa GN 315 = assay: MIC, two-fold agar dilution on Nutrient Agar; assay type: cell-based; conditions: Pseudomonas aeruginosa, GN315
# Experimental: as §1
# E. coli JR 66/W677 = assay: MIC, two-fold agar dilution on Nutrient Agar; assay type: cell-based; conditions: Escherichia coli
# Experimental: as §1
# E. coli PO 1495 = assay: MIC, two-fold agar dilution on Nutrient Agar; assay type: cell-based; conditions: Escherichia coli, PO1495, read-out: MIC
# Experimental: as §1
# E. coli NIHJ = assay: MIC, two-fold agar dilution on Nutrient Agar; assay type: cell-based; conditions: Escherichia coli
# Experimental: as §1
# Ps. aeruginosa A20601 = assay: MIC, two-fold agar dilution on Nutrient Agar; assay type: cell-based; conditions: Pseudomonas aeruginosa
# Experimental: as §1
# E. coli R 5 = assay: MIC, two-fold agar dilution on Nutrient Agar; assay type: cell-based; conditions: Escherichia coli
# Experimental: as §1
# Pr. mirabilis A9554 = assay: MIC, two-fold agar dilution on Nutrient Agar; assay type: cell-based; conditions: Proteus mirabilis
# Experimental: as §1
# Pr. morganii A20031 = assay: MIC, two-fold agar dilution on Nutrient Agar; assay type: cell-based; conditions: Morganella morganii, A20031
# Experimental: as §1
# Prov. stuartii A20894 = assay: MIC, two-fold agar dilution on Nutrient Agar; assay type: cell-based; conditions: Providencia stuartii, A20894
# Experimental: as §1
# E. coli JR 35/C600 = assay: MIC, two-fold agar dilution on Nutrient Agar; assay type: cell-based; conditions: Escherichia coli, JR35/C600
# Experimental: as §1
# Solubility = assay type: physicochemical; conditions: base
# [2] = tested on: Gram-positive and Gram-negative bacteria; assay: In vitro antibacterial activity (general); assay type: cell-based
# Experimental: as §1
# Titration in water = assay type: physicochemical
smiles,measurement,setting,value
"NC[C@H]1O[C@H](O[C@H]2[C@H](O)[C@@H](O[C@H]3O[C@H](CO)[C@@H](O)[C@H](N)[C@H]3O)[C@H](N)C[C@@H]2N)[C@H](O)[C@@H](O)[C@@H]1O [Kanamycin A, reference compound]",MIC,Ent. cloacae A20364,100 µg/mL
same,MIC,"E. coli NR 79/W677; NR79/W677, Table 6, Ec-9",25 µg/mL
same,MIC,Ser. marcescens A20019,0.8 µg/mL
same,MIC,S. aureus D193,0.4 µg/mL
same,MIC,E. coli A20732,12.5 µg/mL
same,MIC,Ps. aeruginosa A9930,6.3 µg/mL
same,MIC,[1],100 µg/mL
same,MIC,Pseudomonas sp. A20621,12.5 µg/mL
same,MIC,Ps. aeruginosa No. 130,25 µg/mL
same,MIC,Ps. aeruginosa A20653; A20653,> 100 µg/mL
same,MIC,S. aureus D137; D137,1.6 µg/mL
same,MIC,Ps. aeruginosa A20896; A20896,> 100 µg/mL
same,MIC,E. coli ML 1630; ML1630,100 µg/mL
same,MIC,Ent. cloacae A21006,50 µg/mL
same,MIC,S. aureus A20239; A20239,25 µg/mL
same,MIC,E. coli A20895; A20895,0.8 µg/mL
same,MIC,K. pneumoniae D11; D11,0.2 µg/mL
same,MIC,Pr. vulgaris A9436; A9436,0.2 µg/mL
same,MIC,E. coli A20107; A20107,25 µg/mL
same,MIC,S. aureus Smith,0.2 µg/mL
same,MIC,Ser. marcescens A21247; A21247,> 100 µg/mL
same,MIC,S. aureus D133; D133,0.8 µg/mL
same,MIC,Ps. aeruginosa GN 315,100 µg/mL
same,MIC,"E. coli JR 66/W677; JR66/W677, Table 6, Ec-53",25 µg/mL
same,MIC,"E. coli PO 1495; Table 6, Ec-2",0.4 µg/mL
same,MIC,E. coli NIHJ,0.8 µg/mL
same,MIC,Ps. aeruginosa A20601; A20601,12.5 µg/mL
same,MIC,"E. coli R 5; R5, Table 6, Ec-55",6.3 µg/mL
same,MIC,Pr. mirabilis A9554; A9554,0.4 µg/mL
same,MIC,Pr. morganii A20031,0.8 µg/mL
same,MIC,Prov. stuartii A20894,0.8 µg/mL
same,MIC,E. coli JR 35/C600,12.5 µg/mL
CCCC(=O)NC1C(CO)OC(OC(C(O)CN)C(N)C(O)CO)C(O)C1O (stereo not drawn) [Bu-2183 A2],solubility in methanol and ethanol,Solubility,slightly soluble
same,"solubility in n-butanol, acetone and other common organic solvents",Solubility,practically insoluble
same,solubility in water,Solubility,soluble
same,MIC,"Ent. cloacae A20364; Table 7, El-2, read-out: MIC",100 µg/mL
same,MIC,"E. coli NR 79/W677; NR79/W677, Table 7, Ec-9",25 µg/mL
same,MIC,"Ser. marcescens A20019; Table 7, Sm-1, read-out: MIC",> 100 µg/mL
same,MIC,"S. aureus D193; Table 7, Sa-3, read-out: MIC",50 µg/mL
same,MIC,"E. coli A20732; Table 7, Ec-72, read-out: MIC",25 µg/mL
same,MIC,"Ps. aeruginosa A9930; Table 7, Pa-3, read-out: MIC",50 µg/mL
same,MIC,"[1]; Table 7, Kp-8 (printed Type 22-3028), read-out: MIC",100 µg/mL
same,MIC,"Pseudomonas sp. A20621; Table 7, Px-10, read-out: MIC",> 100 µg/mL
same,MIC,"Ps. aeruginosa No. 130; Table 7, Pa-16, read-out: MIC",100 µg/mL
same,MIC,"Ps. aeruginosa A20653; A20653, Table 7, Pa-12, read-out: MIC",> 100 µg/mL
same,MIC,"S. aureus D137; D137, Table 7, Sa-9, read-out: MIC",100 µg/mL
same,MIC,"Ps. aeruginosa A20896; A20896, Table 7, Pa-24, read-out: MIC",> 100 µg/mL
same,MIC,"E. coli ML 1630; ML1630, Table 7, Ec-5, read-out: MIC",50 µg/mL
same,MIC,"Ent. cloacae A21006; Table 7, El-12, read-out: MIC",100 µg/mL
same,MIC,"S. aureus A20239; A20239, Table 7, Sa-10, read-out: MIC",100 µg/mL
same,MIC,"E. coli A20895; A20895, Table 7, Ec-62, read-out: MIC",50 µg/mL
same,MIC,"K. pneumoniae D11; D11, Table 7, Kp-1, read-out: MIC",12.5 µg/mL
same,MIC,"Pr. vulgaris A9436; A9436, Table 7, Pv-1, read-out: MIC",100 µg/mL
same,MIC,"E. coli A20107; A20107, Table 7, Ec-49, read-out: MIC",50 µg/mL
same,MIC,"S. aureus Smith; Table 7, Sa-2, read-out: MIC",25 µg/mL
same,MIC,"Ser. marcescens A21247; A21247, Table 7, Sm-16, read-out: MIC",> 100 µg/mL
same,MIC,"S. aureus D133; D133, Table 7, Sa-4, read-out: MIC",100 µg/mL
same,MIC,"Ps. aeruginosa GN 315; Table 7, Pa-27, read-out: MIC",100 µg/mL
same,MIC,"E. coli JR 66/W677; JR66/W677, Table 7, Ec-53",25 µg/mL
same,MIC,"E. coli PO 1495; Table 7, Ec-2",> 100 µg/mL
same,MIC,"E. coli NIHJ; Table 7, Ec-1, read-out: MIC",100 µg/mL
same,MIC,"Ps. aeruginosa A20601; A20601, Table 7, Pa-21, read-out: MIC",> 100 µg/mL
same,MIC,"E. coli R 5; R5, Table 7, Ec-55",25 µg/mL
same,MIC,"Pr. mirabilis A9554; A9554, Table 7, Pm-1, read-out: MIC",50 µg/mL
same,MIC,"Pr. morganii A20031; Table 7, Pg-2, read-out: MIC",50 µg/mL
same,MIC,"Prov. stuartii A20894; Table 7, Ps-2, read-out: MIC",> 100 µg/mL
same,MIC,E. coli JR 35/C600,6.3 µg/mL
same,bio-activity,[2],bio-active
same,activity of Bu-2183 A2 relative to Bu-2183 A and B,[2]; in vitro,more active than Bu-2183 B but less active than Bu-2183 A
same,antibacterial spectrum,[2]; in vitro,broad spectrum of antibacterial activity
NC[C@H](O)[C@@H](O[C@H]1O[C@H](CO)[C@@H](O)[C@H](O)[C@H]1O)[C@H](N)[C@H](O)CO [Bu-2183 C],bio-activity,[2],bio-inactive; also recorded: bioinactive
NC[C@H](O)[C@@H](O[C@H]1O[C@H](CO)[C@@H](N)[C@H](O)[C@H]1O)[C@H](N)[C@H](O)CO [Bu-2183 D],solubility in methanol and ethanol,Solubility,slightly soluble
same,"solubility in n-butanol, acetone and other common organic solvents",Solubility,practically insoluble
same,solubility in water,Solubility,soluble
same,pKa,Titration in water; read-out: pKa' (first value),6.95
same,pKa,Titration in water; read-out: pKa' (second value),9.68
same,bio-activity,[2],bio-inactive
same,bio-activity,[2]; listed as D,bio-inactive; also recorded: bioinactive
